This is an account of results in patent US7514254B2, “Plant-derived alkaline alpha-galactosidase” (The State of Israel, Ministry of Agriculture & Rural …, priority 1998, dated 2009).

Data set [1] has as its system melon (Cucumis melo) fruit acid form alpha-galactosidase. Nature of the data set: Substrate kinetics (Lineweaver-Burk) of acid alpha-galactosidase. The settings on record: for Km / Vmax: Lineweaver-Burk. In kind it is biochemical, muskmelon (Cucumis melo L. cv C-8). The protocol:
For routine analysis and monitoring the activity in the purification steps, alpha-galactosidase was assayed as described by Smart and Pharr (“Characterization of alpha-galactosidase from cucumber leaves”, Plant Physiology, 66:731-734, 1980), using p-nitrophenyl alpha-galactoside (pNPG) as substrate. […] The reaction was terminated after 10 min by adding 1 ml of 5% (w/v) Na2CO3 and activity expressed as nmol nitrophenol per min as measured at 410 nm. […] The assay was started by adding 50 μl enzyme preparation at 35 C and terminated after 10 to 20 min by 2 min boiling. […] For the partial purification of the acid form of alpha-galactosidase the fractions active at pH 5.5 were pooled and concentrated by reverse dialysis against solid sucrose. […] The active fractions were then desalted by dialysis against buffer A for 12 hours with two changes of the buffer. This enzyme fraction was used for the characterization of the acidic form of alpha-galactosidase. […] The substrate specificity of the alpha-galactosidases was tested with pNPG, stachyose, raffinose, melibiose or guar gum (Sigma).

Data set [2] has as its target T1, melon (Cucumis melo) fruit alkaline alpha-galactosidase Form I (Cucumis melo, UniProt Q84NI7).
T1 sequence (Q84NI7 1-754): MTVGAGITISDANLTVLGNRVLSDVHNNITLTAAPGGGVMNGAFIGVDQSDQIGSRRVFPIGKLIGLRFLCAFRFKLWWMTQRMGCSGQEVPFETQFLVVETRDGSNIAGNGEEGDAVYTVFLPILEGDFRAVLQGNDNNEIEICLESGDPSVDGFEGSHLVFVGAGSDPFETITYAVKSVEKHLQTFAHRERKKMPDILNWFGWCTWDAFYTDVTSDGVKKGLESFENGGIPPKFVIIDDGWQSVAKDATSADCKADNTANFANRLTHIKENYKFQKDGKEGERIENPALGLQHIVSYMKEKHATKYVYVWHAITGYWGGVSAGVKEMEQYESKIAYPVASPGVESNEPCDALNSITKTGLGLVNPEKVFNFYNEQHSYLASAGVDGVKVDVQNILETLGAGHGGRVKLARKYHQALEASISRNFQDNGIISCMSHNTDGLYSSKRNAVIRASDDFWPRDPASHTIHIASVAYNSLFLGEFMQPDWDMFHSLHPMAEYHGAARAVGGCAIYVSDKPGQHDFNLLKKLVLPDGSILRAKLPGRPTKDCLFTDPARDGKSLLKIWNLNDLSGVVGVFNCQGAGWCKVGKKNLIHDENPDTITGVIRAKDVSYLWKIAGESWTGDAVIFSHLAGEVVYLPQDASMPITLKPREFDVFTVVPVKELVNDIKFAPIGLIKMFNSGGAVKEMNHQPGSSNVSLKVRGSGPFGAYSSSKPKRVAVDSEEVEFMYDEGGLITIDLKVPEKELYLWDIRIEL
The data set can be described thus: Substrate kinetics (Lineweaver-Burk) of alkaline alpha-galactosidase Form I. The settings on record: for Vmax: Lineweaver-Burk. The protocol: (§1) For routine analysis and monitoring the activity in the purification steps, alpha-galactosidase was assayed as described by Smart and Pharr (“Characterization of alpha-galactosidase from cucumber leaves”, Plant Physiology, 66:731-734, 1980), using p-nitrophenyl alpha-galactoside (pNPG) as substrate. Reaction was initiated by adding 50 μl enzyme aliquot to either 200 μl 100 mM pH 5.5 McIlvaine buffer or 100 mM pH 7.5 HEPES buffer, containing 5 mM pNPG at 35 C. The reaction was terminated after 10 min by adding 1 ml of 5% (w/v) Na2CO3 and activity expressed as nmol nitrophenol per min as measured at 410 nm. […] The assay was started by adding 50 μl enzyme preparation at 35 C and terminated after 10 to 20 min by 2 min boiling.
(§2) The fractions from the DEAE-Sepharose chromatography which were active at pH 7.5 were pooled and dialyzed against buffer A for 12 h prior to loading onto an HPLC ion exchange chromatography column (Mono-Q HR 5/5, Pharmacia, Uppsala, Sweden), previously equilibrated with buffer A. Bound proteins were eluted with a linear gradient of 0.1 to 0.45 M NaCl and the active fractions were detected using pNPG as substrate at pH 7.5 as described above. […] For the further purification of Form II the active fractions of the peak II were chromatographed on hydrophobic interaction chromatography. The fractions were pooled, brought to 1 M (NH4)2SO4 and loaded on to a hydrophobic interaction column (phenyl-Sepharose CL-4B, 0.5×12 cm, Pharmacia, Uppsala, Sweden) previously equilibrated with buffer A containing 1 M (NH4)2SO4. The protein was eluted with a reverse stepwise gradient from 1 to 0 M (NH4)2SO4 with 50 mM intervals in buffer A. Fractions containing the activity peak were collected and dialyzed for 12 h against buffer A and the dialysate was concentrated by reverse dialysis against solid sucrose. The enzyme, partially purified by hydrophobic interaction chromatography, was used for the characterization of Form II. The active fractions from the hydrophobic interaction column were further purified. Active fractions were separated electrophoretically using a Mini Prep Cell (Bio-Rad Laboratories, Hercules, Calif.) for discontinuous native-PAGE with 7% polyacrylamide, according to manufacturer's instructions. Fractions (0.25 ml/fraction) were assayed at pH 7.5 with pNPG as substrate for the activity. The active fractions were pooled, concentrated by Vivaspin Concentrator (Vivascience LTD, Lincoln, England), and run in a 8% SDS-PAGE. Proteins in the SDS-PAGE were identified using Coomassie Blue staining.
Therefore, the active fractions from the Mono-Q column were used for the characterization of Form I. In addition, the Form I enzyme was further purified, as described in the following section.

Data set [3] has as its target T2, melon (Cucumis melo) fruit alkaline alpha-galactosidase Form II (Cucumis melo, UniProt Q84NI6).
T2 construct: native 102 kDa, denatured 92 kDa; assayed at pH 7.5
T2 sequence (Q84NI6 1-772): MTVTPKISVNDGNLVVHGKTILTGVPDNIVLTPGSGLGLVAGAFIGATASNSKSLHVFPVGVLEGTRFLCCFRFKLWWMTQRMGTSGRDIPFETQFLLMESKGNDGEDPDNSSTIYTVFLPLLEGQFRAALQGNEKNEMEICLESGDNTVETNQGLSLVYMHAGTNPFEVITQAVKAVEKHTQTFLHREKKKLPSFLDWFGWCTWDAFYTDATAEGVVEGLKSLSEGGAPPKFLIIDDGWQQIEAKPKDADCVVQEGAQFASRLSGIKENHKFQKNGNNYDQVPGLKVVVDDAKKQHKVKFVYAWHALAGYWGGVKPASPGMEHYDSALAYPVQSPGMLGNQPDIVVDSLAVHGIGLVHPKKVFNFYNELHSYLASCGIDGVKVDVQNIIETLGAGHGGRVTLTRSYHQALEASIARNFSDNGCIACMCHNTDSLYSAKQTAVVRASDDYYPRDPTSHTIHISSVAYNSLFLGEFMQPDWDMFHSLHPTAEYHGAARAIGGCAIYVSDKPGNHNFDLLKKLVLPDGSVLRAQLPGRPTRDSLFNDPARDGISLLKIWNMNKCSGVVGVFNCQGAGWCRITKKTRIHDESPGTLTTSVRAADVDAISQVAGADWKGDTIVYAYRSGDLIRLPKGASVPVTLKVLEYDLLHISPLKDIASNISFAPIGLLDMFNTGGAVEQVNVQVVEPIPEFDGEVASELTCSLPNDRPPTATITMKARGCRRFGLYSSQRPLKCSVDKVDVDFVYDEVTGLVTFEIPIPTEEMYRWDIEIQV
The data set can be described thus: Substrate kinetics (Lineweaver-Burk) of alkaline alpha-galactosidase Form II. The class given is biochemical, muskmelon (Cucumis melo L. cv C-8). The settings on record: for Vmax: Lineweaver-Burk. The protocol: as §1, §2

For data set [4], the system named is Escherichia coli K12 alpha-galactosidase. The settings on record: Schmid and Schmitt 1976; cited from earlier work.
Data set [5] has as its system Pseudomonas fluorescens H-601 alpha-galactosidase. The settings on record: Hashimoto et al. 1991; relative Km values; cited from earlier work.
For data set [6] the following is noted: raffinose versus melibiose; literature; cited from earlier work.
Substrate in data set [7]: O=[N+]([O-])c1ccc(O[C@H]2O[C@H](CO)[C@H](O)[C@H](O)[C@H]2O)cc1
Nature of the data set: purified protein, by the assay type. The settings on record: other: alkaline Form I; Lineweaver-Burk; 35.0 °C.

Substrate in data set [8]: OC[C@H]1O[C@H](OC[C@H]2OC(O)[C@H](O)[C@@H](O)[C@@H]2O)[C@H](O)[C@@H](O)[C@H]1O
The data set can be described thus: purified protein, by the assay type. The settings on record: other: alkaline Form I; Lineweaver-Burk; 35.0 °C.

Substrate in data set [9]: OC[C@H]1O[C@H](OC[C@H]2O[C@H](OC[C@H]3O[C@H](O[C@]4(CO)O[C@H](CO)[C@@H](O)[C@@H]4O)[C@H](O)[C@@H](O)[C@@H]3O)[C@H](O)[C@@H](O)[C@H]2O)[C@H](O)[C@@H](O)[C@H]1O
The data set can be described thus: purified protein, by the assay type. The settings on record: other: alkaline Form I; Lineweaver-Burk; 35.0 °C.

Substrate in data set [10]: OC[C@H]1O[C@H](OC[C@H]2O[C@H](O[C@]3(CO)O[C@H](CO)[C@@H](O)[C@@H]3O)[C@H](O)[C@@H](O)[C@@H]2O)[C@H](O)[C@@H](O)[C@H]1O
Nature of the data set: purified protein, by the assay type. The settings on record: other: alkaline Form I; Lineweaver-Burk; 35.0 °C.

`OC[C@H]1O[C@H](OC[C@H]2OC(O)[C@H](O)[C@@H](O)[C@@H]2O)[C@H](O)[C@@H](O)[C@H]1O` (stereo partly drawn) [Melibiose, 6-O-alpha-D-galactopyranosyl-D-glucose]: the Vmax/Km ratio in data set [1] amounted to 0.27. For the same molecule, the figures for the Km in [1], in data set [4] and in [5] were 700 µM, 3200 µM and 3200 µM, respectively. Also, the figures for the Vmax in [1], in [2] and in [3] were 0.19 μmol mg^−1 protein min^−1, 0.3 μmol mg^−1 protein min^−1 and 0.23 μmol mg^−1 protein min^−1, respectively.

Consider `O=[N+]([O-])c1ccc(O[C@H]2O[C@H](CO)[C@H](O)[C@H](O)[C@H]2O)cc1` [pNPG, p-nitrophenyl alpha-galactopyranoside], for which, in data set [1], the Vmax/Km ratio was found to be 5.00, the Km (usually the substrate concentration at which the rate is half of its maximum) stood at 300 µM and the Vmax is on record as 1.5 μmol mg^−1 protein min^−1. In addition, the “pNPG concentration above which enzyme is inhibited (substrate inhibition)” value in [1] (pNPG as substrate) is given as “above 5 mM”. Moreover, in [2], the Vmax/Km ratio is recorded as 1.17 and the Vmax is 1.4 μmol mg^−1 protein min^−1. For the same molecule, in data set [3], the Vmax/Km ratio came to 2.63 and the Vmax is 7.9 μmol mg^−1 protein min^−1.

B1: alpha-galactosidase from Escherichia coli K12: alpha-galactosidase of Schmid and Schmitt, tetrameric protein (protein, UniProt P06720 1-451, looked up)
Alpha-galactosidase: MMSAPKITFIGAGSTIFVKNILGDVFHREALKTAHIALMDIDPTRLEESHIVVRKLMDSAGASGKITCHTQQKEALEDADFVVVAFQIGGYEPCTVTDFEVCKRHGLEQTIADTLGPGGIMRALRTIPHLWQICEDMTEVCPDATMLNYVNPMAMNTWAMYARYPHIKQVGLCHSVQGTAEELARDLNIDPATLRYRCAGINHMAFYLELERKTADGSYVNLYPELLAAYEAGQAPKPNIHGNTRCQNIVRYEMFKKLGYFVTESSEHFAEYTPWFIKPGREDLIERYKVPLDEYPKRCVEQLANWHKELEEYKKASRIDIKPSREYASTIMNAIWTGEPSVIYGNVRNDGLIDNLPQGCCVEVACLVDANGIQPTKVGTLPSHLAALMQTNINVQTLLTEAILTENRDRVYHAAMMDPHTAAVLGIDEIYALVDDLIAAHGDWLPGWLHR
For B1, in [6], the “activity with raffinose as compared to melibiose” value was “about 4%”.

B2: melon (Cucumis melo) fruit alkaline alpha-galactosidase Form I (Cucumis melo) (protein)
chain: T1 sequence (Q84NI7 1-754)
Take B2: the Km in data set [7] was 1200 µM; in [8], 20000 µM; in data set [9], 4000 µM; in [10] it was 1500 µM. For the same molecule, the Vmax in data set [8] is 0.3 µmol/min; in data set [9], 0.24 µmol/min; in [10] it was 0.56 µmol/min.
